{"source": "patent US20260231954A1", "about": "“PESTICIDAL ENZYMES FOR USE ON NEMATODES, INSECTS, AND MOLLUSKS” (priority 2023, published 2026)", "key": {"[1]": {"system": "soybean cyst nematode (SCN, Heterodera glycines)", "test": "Soybean cyst nematode reproduction on soybean after seed treatment, controlled environment (cysts per gram of root tissue or per plant)", "format": "in vivo"}, "Meloidogyne incognita": {"system": "Meloidogyne incognita", "test": "Root gall index of soybeans inoculated with Meloidogyne incognita after seed treatment (greenhouse)", "format": "in vivo", "conditions": "for % Comparison to Control: first figure, base seed treatment control = 100%", "method": "Nematicidal neutral protease (SEQ ID NO: 127) was produced by fermentation in Bacillus subtilis. The enzyme was cloned into Bacillus expression plasmid p1797 with isopropyl β-d-1-thiogalactopyranoside (IPTG)-inducible expression. The plasmid was transformed into B. subtilis, and this strain was grown in rich media until an optical density (OD) of 0.2-0.5 was reached. Then, enzyme expression was induced by addition of 1 mM IPTG. Following the culture harvest, cells were removed by filtration through a […] filter. Culture filtrate containing secreted protease was then used for seed treatment. Bacillus subtilis fermentation filtrate expressing neutral protease was mixed directly into a seed treatment slurry containing colorant and Peridiam® 1006 […] at a rate of 2 fl oz per unit of seed and coated onto Bossier variety soybean seed.\nTo investigate the effects of neutral protease on galling due to root knot nematode infestation, treated seeds were planted in soil in cone-tainers in a greenhouse. Seven days after planting, each cone-tainer was inoculated with 1250 eggs from the Dick Meloidogyne incognita population. Eight weeks post-inoculation, roots were excavated and washed. Root galling was visually rated on a gall index (GI) scale of 1-5 (1=<10% GI; 2=11-20%, 3=21-30%, 4=31-40%, 5=>40% GI). Fifteen plants were evaluated per treatment and their average root gall ratings were recorded."}, "[2]": {"system": "soybean cyst nematode (SCN)", "test": "SCN reproduction after application of enzyme or recombinant strain to soil", "format": "in vivo, Heterodera glycines", "conditions": "Table 33; for % Comparison to Control: first figure, water control = 100%", "method": "To determine the efficacy of nematicidal enzymes applied to soil, a controlled environment trial was performed with 7-day old soybean plants (variety 2830E3) grown in pots. Enzymes were produced as described in Example 2. Prior to inoculation, 0.5 mL of neutral protease (SEQ ID NO: 127), esterase B (SEQ ID NO: 89), or chitinase 19F (SEQ ID NO: 182) free enzyme solution was applied to the soil around the base of each plant, or 0.5 mL of water was applied for the control (30 plants per treatment). Then, hatched SCN juveniles were applied to the soil around each plant as described in Example 2, and three weeks later, cysts per gram of root tissue was determined as described in Example 2. The data was analyzed as in Example 2 and appears in Tables 33 and 34.\nTo determine the efficacy of recombinant strains applied to soil, a controlled environment trial was performed as described in Example 18 above (Reduction of soybean cyst nematode reproduction by enzymes applied to soil), with the exception that a recombinant strain expressing neutral protease (SEQ ID NO: 127) was applied instead of a free enzyme solution. The recombinant strain was produced as in Example 3, and the treatment applied to soil as a whole cell broth."}, "[3]": {"system": "Diamondback moth (Plutella xylostella)", "test": "Diet-surface overlay (DSO) bioassay on Diamondback moth", "format": "in vivo", "conditions": "number of individuals, n = 16", "method": "(§1) Diet-surface overlay bioassays are conducted with artificial diet mixes without antibiotics in 1.5 cm^2 cell bioassay trays(s). Artificial diets are commercially available from Southland Products Inc. Diets were prepared by dispersing 0.5 mL of molten diet to each 1.5 cm^2 cell. After solidification, 0.1 mL enzyme treatments were dispersed on top of diet in each cell and the tray was gently rocked in an orbital shaker to spread the liquid uniformly over the diet surface. Trays were placed under clean airflow until the surface of each cell was uniformly dried. One or two 16-cell sections were used per treatment (the number in larvae treated was 16 or 32).\n(§2) One healthy first instar larva was placed into each treatment cell, each 16-cell section was covered with a re-sealable lid and incubated at 27° C. and light-dark period of 16:8 hrs. After 7 days, and according to the species, the number of individuals in the following developmental categories was recorded.\n(§3) Diamondback moth (Plutella xylostella): Dead Larva (lack of movement), Larva Stage I (≤50% relative size), Larva Stage II (100% relative size, full size), Early Pupa (light green color), Late Pupa (light-dark brown color), and Adult.\n(§4) Negative/untreated controls were treated with filtered water and positive controls were treated with lethal doses of Bacillus thuringiensis subsp. Kurstaki (Btk) spores at 1000 ppm."}, "[4]": {"system": "Btk resistant Diamondback moth", "test": "Diet-surface overlay (DSO) bioassay on Btk resistant Diamondback moth", "format": "in vivo, Plutella xylostella", "conditions": "number of individuals, n = 32, 7 days", "method": "as §1, §2, §3, §4\nHowever, both neutral proteases reduced the number of individuals reaching adult stage.\nThe effect of lipase (10× enzyme rate) and free lipases were tested on a Diamondback Moth Btk resistant strain. Free Lipases from Burkholderia cepacia (Bc) and Pseudomonas fluorescens (Pf) were tested along with Lipase (SEQ ID NO: 76) and the results are shown below in Table 45."}}, "data": [{"substance": "Neutral protease (SEQ ID NO: 127): Bacillus sp. B16 neutral protease produced by fermentation in Bacillus subtilis; culture filtrate containing the secreted enzyme", "values": [{"measurement": "Average cysts per g of root tissue", "setting": "[1]; Table 11, free enzyme seed treatment 2 fl. oz. per unit of seed (ILEVO 0.15 mg active ingredient per seed), soybean P18A98X, 3 weeks after inoculation", "result": "20.1 cysts per g of root tissue"}, {"measurement": "Average cysts per g of root tissue", "setting": "[1]; Table 14, seed treated with whole cell broth, soybean P18A98X", "result": "40.3 cysts per g of root tissue"}, {"measurement": "% Comparison to Control (figure in parentheses)", "setting": "[1]; Table 38, change vs base control, liquid 2 fl oz/unit, ILEVO", "result": "−42", "unit": "%"}, {"measurement": "Average cysts per g of root tissue", "setting": "[1]; Table 38, liquid formulation 2 fl oz/unit, ILEVO positive control, soybean 2830E3", "result": "208.8 cysts per g of root tissue"}, {"measurement": "% Comparison to Control (figure in parentheses)", "setting": "Meloidogyne incognita; Table 26, change vs base control", "result": "−26", "unit": "%"}, {"measurement": "% Comparison to Control", "setting": "Meloidogyne incognita; Table 26", "result": "reduction of average visual gall rating"}, {"measurement": "% Comparison to Control", "setting": "Meloidogyne incognita; Table 26, listed as Neutral protease seed treatment (SEQ ID NO: 127)", "result": 74, "unit": "%"}, {"measurement": "Average root gall rating", "setting": "Meloidogyne incognita; gall index scale of 1-5, seed treatment 2 fl oz per unit of seed, Bossier soybean, 8 weeks post-inoculation, 15 plants", "result": 3.5}, {"measurement": "% Comparison to Control (figure in parentheses)", "setting": "[2]; change vs water control", "result": "−32", "unit": "%"}, {"measurement": "% Comparison to Control", "setting": "[2]", "result": "reduced SCN reproduction"}, {"measurement": "% Comparison to Control", "setting": "[2]; listed as Neutral protease free enzyme (SEQ ID NO: 127)", "result": 68, "unit": "%"}, {"measurement": "Average cysts per g of root tissue", "setting": "[2]; free enzyme 0.5 mL/plant to soil, soybean 2830E3, 3 weeks", "result": "35.7 cysts per g of root tissue"}, {"measurement": "Dead Larva", "setting": "[3]; Table 41, proteases, after 7 days, rate in U/mL diet column", "result": 2}, {"measurement": "Adult", "setting": "[3]; Table 41, 7 days", "result": 0}, {"measurement": "Early Pupa", "setting": "[3]; Table 41, 7 days", "result": 8}, {"measurement": "Larva Stage I", "setting": "[3]; Table 41, 7 days", "result": 0}, {"measurement": "Larva Stage II", "setting": "[3]; Table 41, 7 days", "result": 0}, {"measurement": "Late Pupa", "setting": "[3]; Table 41, 7 days", "result": 6}, {"measurement": "Dead Larva", "setting": "[4]; Table 42, proteases at 10x rate", "result": 4}, {"measurement": "Adult", "setting": "[4]; Table 42", "result": 0}, {"measurement": "Early Pupa", "setting": "[4]; Table 42", "result": 6}, {"measurement": "Larva Stage I", "setting": "[4]; Table 42", "result": 0}, {"measurement": "Larva Stage II", "setting": "[4]; Table 42", "result": 0}, {"measurement": "Late Pupa", "setting": "[4]; Table 42", "result": 22}]}]}
